Laboratory results: ChEMBL document CHEMBL1124038, “Dehydro keto methylene and keto methylene analogues of substance P. Synthesis and biological activity” (J Med Chem, 1988)
pIC50: −log10 of the molar value. Numbered stars: 1 amine (or outer) side, 2 acyl side, 3 side chain; on linkers, the order of the positions; unused ones are H or OH. Square brackets hold non-standard residues; d marks the D form. Peptide text beside a SMILES is read from it. X1 = CC(C)C[C@H](CC(=O)CN[*:1])C(=O)[*:2]; pGlu = O=C1CC[C@@H](C(=O)O)N1

Organism: Rattus norvegicus
Test: Inhibition of the degradation of [125IBH]-SP6-11 in rat hypothalamus preparations
Assay type: functional

**Q.** With CCOC(=O)/C(=C\c1ccccc1)CC(=O)[C@H](Cc1ccccc1)NC(=O)c1ccccc1 as the compound, how does the pIC50 read?
**A.** < 3.70

**Q.** With O=C1CC[C@H](C(=O)N[C@@H](Cc2ccccc2)C(=O)C/C(=C/c2ccccc2)C(=O)O)N1 as the compound, how does the pIC50 read?
**A.** < 3.70

**Q.** With CCOC(=O)/C(=C\c1ccccc1)CC(=O)[C@H](Cc1ccccc1)NC(=O)[C@H]1CCC(=O)N1 as the compound, how does the pIC50 read?
**A.** < 3.70

**Q.** How did the pIC50 turn out when COC(=O)CCC(=O)[C@H](Cc1ccccc1)NC(=O)[C@H](Cc1ccccc1)NC(=O)[C@H]1CCC(=O)N1 was run?
**A.** < 3.70

**Q.** How did the pIC50 turn out when CSCC[C@H](NC(=O)[C@H](CC(C)C)NC(=O)CNC(=O)/C(=C\c1ccccc1)CC(=O)[C@H](Cc1ccccc1)NC(=O)[C@H]1CCC(=O)N1)C(N)=O was run?
**A.** 5.74

**Q.** With CSCC[C@H](NC(=O)[C@H](CC(C)C)NC(=O)CNC(=O)[C@@H](CC(=O)[C@H](Cc1ccccc1)NC(=O)[C@H]1CCC(=O)N1)Cc1ccccc1)C(N)=O as the compound, how does the pIC50 read?
**A.** 4.52

**Q.** How did the pIC50 turn out when COC(=O)CCC(=O)[C@@H](N)Cc1ccccc1 was run?
**A.** < 3.70

**Q.** CCOC(=O)/C(=C\c1ccccc1)CC(=O)[C@@H](N)Cc1ccccc1 was tested. Which pIC50 did it give?
**A.** < 3.70

**Q.** With CSCC[C@H](NC(=O)[C@@H](CC(=O)CNC(=O)[C@H](Cc1ccccc1)NC(=O)[C@H](Cc1ccccc1)NC(=O)[C@@H]1CCC(=O)N1)CC(C)C)C(N)=O ([pGlu]FF[X1]M-NH2) as the compound, how does the pIC50 read?
**A.** 4.30
